Reference: US20260207765A1, “COVALENTLY-MODIFIED STEROID ACID-PEPTIDES HAVING ENHANCED STABILITY AND/OR BIOLOGICAL ACTIVITY” (priority 2022, published 2026)
Positions of bridges follow the written chain, without caps; N, C: chain ends. Residues, ends and D or L forms follow the SMILES beside them. Chains are numbered I, II in the order given. *: point of attachment. Chenodeoxycholyl = C[C@H](CCC(=O)*)[C@H]1CC[C@H]2[C@@H]3[C@H](O)C[C@@H]4C[C@H](O)CC[C@]4(C)[C@H]3CC[C@]12C

How the values were obtained:
EL4 lymphoma cells = assay: Apoptosis analysis / kill curve by flow cytometry (Annexin-V, PI); format: cell-based, mouse
Description: (§1) Apoptosis analysis was conducted by flow-cytometry. Briefly, target cells were first treated then washed. Treated cells were then re-suspended in Annexin-V staining buffer prior to staining with Annexin-V and propidium iodine (PI). Fifteen minutes later, cells were washed prior to analysis using BD FACS™ Diva on CANTOII™.

murine MSCs = assay: Maximum tolerated dose on murine MSCs over 24 h; format: cell-based; conditions: 50 μM
B16 melanoma cells = assay: Apoptosis analysis by flow cytometry; format: cell-based; conditions: 95 and 190 μM
Description: as §1

[1] = system: E0771 breast cancer cells; assay: Apoptosis analysis by flow cytometry; format: cell-based; conditions: 95 and 190 μM
Description: as §1

4T1 breast cancer cells = assay: Apoptosis analysis by flow cytometry; format: cell-based; conditions: 95 and 190 μM
Description: as §1

[2] = system: CT-26 colon carcinoma cells; assay: Apoptosis analysis by flow cytometry; format: cell-based; conditions: 95 and 190 μM
Description: as §1

[3] = system: wild-type MSC and B3Z reporter system; assay: Antigen cross-presentation, wild-type MSC and B3Z reporter system; conditions: 100 μM
[4] = system: JIMT-1 breast cancer cells; assay: Cytotoxicity of steroid acid-peptide conjugates in JIMT-1 cells; format: cell-based; conditions: 6.4 μM
Description: as §1
50 mg of CDCA-C-SV40 monomers (or other steroid acid-peptide monomers) were resuspended in 200-500 μL of DMSO. 10 eq of N,N-Diisopropylethylamine (DIPEA) was added to the mixture and incubated in a thermomixer at 37° C. with agitation (1000 rpm) overnight, enabling dimerization of the monomers via their N-terminal cysteine thiol groups to produce (CDCA-C-SV40)2 or other dimers. The samples were then analyzed by UPLC-MS to evaluate dimer formation efficiency. Cell toxicity was evaluated via a Cell Toxicity assay (PrestoBlue™).

[5] = Stability testing (impurities by HPLC); format: physicochemical
Description: GMP synthesis of the CDCA-C-SV40 monomer yielded a white powder and the results of initial stability testing is summarized below:
As shown above, two main impurities were detected by HPLC relating to the reactivity of the free thiol group of the CDCA-C-SV40 monomer, namely impurities resulting from oxidation of the thiol group (Impurity A) and the formation an intermolecular disulfide bond via the thiol groups of two CDCA-C-SV40 monomers, producing a (CDCA-C-SV40)2 dimer (Impurity B).
To attempt to improve stability, the synthesis protocol of CDCA-C-SV40 was modified to produce the conjugate directly in its dimerized form (Impurity B). […] At 25° C., total impurities rose only slightly from 1.6% at Day 0 to 2.1% after 3 months. At 40° C., total impurities rose from 1.6% at Day 0 to 1.7% after 5 days, 2.4% after 10 days, and to 3.7% after 30 days.

With `CC(C)[C@H](NC(=O)[C@H](CCCCN)NC(=O)[C@H](CCCNC(=N)N)NC(=O)[C@H](CCCCN)NC(=O)[C@H](CCCCN)NC(=O)[C@H](CCCCN)NC(=O)[C@@H]1CCCN1C(=O)CNC(=O)[C@H](Cc1ccc(O)cc1)NC(=O)CNC(=O)[C@H](CSSC[C@H](NC(=O)CC[C@@H](C)[C@H]1CC[C@H]2[C@@H]3[C@H](O)C[C@@H]4C[C@H](O)CC[C@]4(C)[C@H]3CC[C@]12C)C(=O)NCC(=O)N[C@@H](Cc1ccc(O)cc1)C(=O)NCC(=O)N1CCC[C@H]1C(=O)N[C@@H](CCCCN)C(=O)N[C@@H](CCCCN)C(=O)N[C@@H](CCCCN)C(=O)N[C@@H](CCCNC(=N)N)C(=O)N[C@@H](CCCCN)C(=O)N[C@H](C(=O)NCC(=O)NCC(=O)O)C(C)C)NC(=O)CC[C@@H](C)[C@H]1CC[C@H]2[C@@H]3[C@H](O)C[C@@H]4C[C@H](O)CC[C@]4(C)[C@H]3CC[C@]12C)C(=O)NCC(=O)NCC(=O)O` [(CDCA-C-SV40)2] (I: Chenodeoxycholyl-CGYGPKKKRKVGG-OH / II: Chenodeoxycholyl-CGYGPKKKRKVGG-OH; disulfide I:1-II:1) the cytotoxicity (EL4 lymphoma cells; 95 and 190 μM) was “potent cytotoxicity”, the EC50 (EL4 lymphoma cells; EL4 lymphoma cells, flow cytometry, read-out: EC50 (cell death / kill curve)) was 3.2 µM and the MSCs growth (murine MSCs) was “diminished but was still present”. The cytotoxicity (B16 melanoma cells) was “potent cytotoxicity”, the cytotoxicity [1] was “potent cytotoxicity” and the cytotoxicity (4T1 breast cancer cells) was “potent cytotoxicity”. For the same molecule, the cytotoxicity [2] was “potent cytotoxicity”, the “cell death of MSCs” value [3] was “significant cell death” and the cytotoxicity [4] was “potent cytotoxicity”. For the same molecule, the “stability of dimer compared with corresponding monomer” value [5] was “markedly higher stability”.
